± gives the expanded uncertainty stated by the source.
Conditions: Liquid, Vibrating wire viscometry

CCCCOC(=O)CCCCC(=O)OCCCC [dibutyl hexanedioate]
viscosity [mPa·s]
Conditions | 100 kPa | 1000 kPa | 5000 kPa | 10000 kPa | 15000 kPa | 20000 kPa | 30000 kPa | 40000 kPa
283.15 K | – | – | – | – | 8.961 ± 0.19 | – | 10.62 ± 0.22 | 11.95 ± 0.25
283.16 K | 7.383 ± 0.16 | 7.493 ± 0.16 | – | – | – | 9.508 ± 0.2 | – | –
283.17 K | – | – | 7.896 ± 0.17 | 8.407 ± 0.18 | – | – | – | –
293.14 K | – | 5.566 ± 0.12 | – | – | 6.585 ± 0.14 | – | – | 8.724 ± 0.18
293.15 K | 5.499 ± 0.12 | – | 5.84 ± 0.12 | 6.196 ± 0.13 | – | 6.982 ± 0.15 | 7.808 ± 0.16 | –
303.15 K | 4.237 ± 0.09 | – | 4.49 ± 0.095 | 4.759 ± 0.1 | 5.029 ± 0.11 | 5.323 ± 0.11 | 5.933 ± 0.12 | 6.592 ± 0.14
303.16 K | – | 4.288 ± 0.094 | – | – | – | – | – | –
313.15 K | 3.375 ± 0.072 | 3.411 ± 0.074 | 3.566 ± 0.075 | 3.769 ± 0.08 | 3.979 ± 0.084 | 4.197 ± 0.089 | 4.66 ± 0.098 | 5.153 ± 0.11
323.15 K | – | 2.774 ± 0.06 | 2.9 ± 0.062 | 3.061 ± 0.065 | 3.224 ± 0.068 | 3.393 ± 0.072 | 3.754 ± 0.079 | 4.146 ± 0.088
323.16 K | 2.746 ± 0.058 | – | – | – | – | – | – | –
333.14 K | – | – | – | 2.54 ± 0.054 | – | – | – | –
333.15 K | 2.282 ± 0.049 | 2.304 ± 0.05 | 2.407 ± 0.051 | – | – | 2.814 ± 0.06 | 3.106 ± 0.066 | 3.412 ± 0.072
333.16 K | – | – | – | – | 2.675 ± 0.057 | – | – | –
343.15 K | 1.93 ± 0.041 | 1.95 ± 0.042 | 2.035 ± 0.043 | 2.144 ± 0.046 | 2.257 ± 0.048 | 2.37 ± 0.05 | 2.612 ± 0.055 | 2.859 ± 0.061
353.15 K | 1.655 ± 0.035 | 1.672 ± 0.036 | 1.746 ± 0.037 | 1.839 ± 0.039 | 1.933 ± 0.041 | 2.031 ± 0.043 | 2.23 ± 0.047 | 2.438 ± 0.052
363.15 K | 1.437 ± 0.031 | 1.452 ± 0.031 | – | – | 1.675 ± 0.036 | 1.757 ± 0.038 | 1.93 ± 0.041 | 2.108 ± 0.045
363.16 K | – | – | – | 1.594 ± 0.034 | – | – | – | –
363.17 K | – | – | 1.513 ± 0.032 | – | – | – | – | –

CCOC(=O)CCCCC(=O)OCC [diethyl hexanedioate]
viscosity [mPa·s]
Conditions | 100 kPa | 1000 kPa | 5000 kPa | 10000 kPa | 15000 kPa | 20000 kPa | 30000 kPa | 40000 kPa
283.15 K | 4.541 ± 0.096 | 4.59 ± 0.097 | 4.792 ± 0.1 | 5.062 ± 0.11 | 5.332 ± 0.11 | 5.622 ± 0.12 | – | 6.887 ± 0.14
283.16 K | – | – | – | – | – | – | 6.223 ± 0.13 | –
293.15 K | 3.486 ± 0.074 | 3.521 ± 0.077 | 3.672 ± 0.078 | 3.868 ± 0.082 | 4.075 ± 0.086 | 4.278 ± 0.09 | 4.722 ± 0.1 | 5.195 ± 0.11
303.15 K | 2.766 ± 0.059 | 2.792 ± 0.06 | 2.912 ± 0.062 | 3.063 ± 0.065 | 3.207 ± 0.068 | 3.361 ± 0.071 | 3.696 ± 0.078 | 4.042 ± 0.085
313.15 K | 2.252 ± 0.048 | – | 2.362 ± 0.05 | 2.478 ± 0.053 | 2.597 ± 0.055 | 2.721 ± 0.058 | 2.978 ± 0.063 | 3.251 ± 0.069
313.16 K | – | 2.272 ± 0.049 | – | – | – | – | – | –
323.15 K | 1.87 ± 0.04 | 1.886 ± 0.041 | 1.961 ± 0.042 | 2.054 ± 0.044 | 2.151 ± 0.046 | 2.248 ± 0.048 | 2.461 ± 0.052 | 2.68 ± 0.057
333.15 K | 1.579 ± 0.034 | 1.592 ± 0.034 | 1.653 ± 0.035 | 1.734 ± 0.037 | 1.814 ± 0.039 | 1.896 ± 0.04 | 2.066 ± 0.044 | 2.249 ± 0.048
343.15 K | 1.354 ± 0.029 | 1.367 ± 0.03 | 1.419 ± 0.03 | 1.487 ± 0.032 | 1.555 ± 0.033 | 1.624 ± 0.035 | 1.765 ± 0.038 | 1.917 ± 0.041
353.14 K | – | 1.187 ± 0.026 | – | – | – | – | – | –
353.15 K | 1.177 ± 0.025 | – | 1.233 ± 0.027 | 1.292 ± 0.028 | 1.351 ± 0.029 | 1.411 ± 0.03 | 1.534 ± 0.033 | 1.662 ± 0.036
363.15 K | 1.032 ± 0.023 | 1.041 ± 0.023 | 1.081 ± 0.024 | 1.133 ± 0.025 | 1.183 ± 0.026 | 1.236 ± 0.027 | 1.343 ± 0.029 | 1.453 ± 0.031

COC(=O)CCCCC(=O)OC [dimethyl 1,6-hexanedioate]
viscosity [mPa·s]
Conditions | 100 kPa | 1000 kPa | 5000 kPa | 10000 kPa | 15000 kPa | 20000 kPa | 30000 kPa | 40000 kPa
293.15 K | – | – | 3.46 ± 0.073 | 3.623 ± 0.077 | 3.787 ± 0.08 | 3.958 ± 0.084 | 4.333 ± 0.091 | 4.722 ± 0.1
293.17 K | 3.302 ± 0.07 | 3.331 ± 0.071 | – | – | – | – | – | –
303.15 K | – | – | 2.735 ± 0.058 | 2.854 ± 0.06 | – | – | – | –
303.16 K | – | – | – | – | 2.985 ± 0.063 | 3.115 ± 0.066 | 3.384 ± 0.072 | 3.672 ± 0.078
303.17 K | 2.617 ± 0.056 | 2.637 ± 0.057 | – | – | – | – | – | –
313.14 K | – | 2.151 ± 0.046 | – | – | 2.422 ± 0.051 | 2.522 ± 0.053 | 2.727 ± 0.058 | –
313.15 K | 2.129 ± 0.045 | – | 2.227 ± 0.047 | 2.326 ± 0.049 | – | – | – | 2.955 ± 0.063
323.14 K | – | – | – | – | – | – | – | 2.432 ± 0.052
323.15 K | 1.774 ± 0.038 | 1.789 ± 0.039 | 1.85 ± 0.04 | 1.928 ± 0.041 | 2.008 ± 0.043 | 2.089 ± 0.044 | 2.254 ± 0.048 | –
333.14 K | – | – | – | – | – | – | – | 2.046 ± 0.044
333.15 K | 1.503 ± 0.032 | 1.514 ± 0.033 | 1.565 ± 0.034 | 1.629 ± 0.035 | 1.696 ± 0.036 | 1.764 ± 0.038 | 1.903 ± 0.041 | –
343.15 K | 1.293 ± 0.028 | 1.303 ± 0.028 | 1.346 ± 0.029 | 1.401 ± 0.03 | 1.457 ± 0.031 | 1.514 ± 0.032 | 1.63 ± 0.035 | 1.752 ± 0.037
353.15 K | 1.128 ± 0.024 | – | 1.174 ± 0.025 | 1.221 ± 0.026 | 1.269 ± 0.027 | 1.317 ± 0.028 | 1.417 ± 0.03 | 1.52 ± 0.033
353.16 K | – | 1.136 ± 0.025 | – | – | – | – | – | –
363.13 K | – | – | – | – | 1.115 ± 0.024 | 1.157 ± 0.025 | – | –
363.15 K | 0.9897 ± 0.022 | 0.9971 ± 0.022 | 1.03 ± 0.022 | 1.072 ± 0.023 | – | – | 1.244 ± 0.027 | 1.332 ± 0.029

CCCOC(=O)CCCCC(=O)OCCC [dipropyl hexanedioate]
viscosity [mPa·s]
Conditions | 100 kPa | 1000 kPa | 5000 kPa | 10000 kPa | 15000 kPa | 20000 kPa | 30000 kPa | 40000 kPa
283.15 K | 6.153 ± 0.14 | 6.217 ± 0.14 | 6.536 ± 0.15 | 6.943 ± 0.16 | 7.36 ± 0.17 | 7.811 ± 0.18 | 8.759 ± 0.2 | 9.76 ± 0.22
293.14 K | – | 4.65 ± 0.11 | – | – | – | – | – | –
293.15 K | 4.599 ± 0.11 | – | 4.87 ± 0.11 | 5.155 ± 0.12 | 5.456 ± 0.12 | 5.773 ± 0.13 | 6.429 ± 0.15 | 7.169 ± 0.16
303.15 K | 3.567 ± 0.082 | 3.604 ± 0.084 | 3.766 ± 0.086 | 3.983 ± 0.091 | 4.205 ± 0.096 | 4.434 ± 0.1 | 4.938 ± 0.11 | 5.457 ± 0.12
313.15 K | 2.854 ± 0.065 | 2.889 ± 0.067 | 3.014 ± 0.069 | 3.178 ± 0.073 | 3.347 ± 0.076 | 3.519 ± 0.08 | 3.899 ± 0.089 | 4.293 ± 0.098
323.14 K | – | – | – | 2.592 ± 0.059 | – | – | – | –
323.15 K | 2.34 ± 0.054 | 2.364 ± 0.055 | 2.464 ± 0.056 | – | 2.725 ± 0.062 | 2.867 ± 0.066 | 3.157 ± 0.072 | 3.475 ± 0.079
333.15 K | 1.954 ± 0.045 | 1.973 ± 0.046 | 2.058 ± 0.047 | 2.163 ± 0.05 | 2.275 ± 0.052 | 2.391 ± 0.055 | 2.624 ± 0.06 | 2.875 ± 0.066
343.15 K | 1.658 ± 0.038 | 1.673 ± 0.039 | 1.744 ± 0.04 | 1.835 ± 0.042 | 1.928 ± 0.044 | 2.019 ± 0.046 | 2.216 ± 0.051 | 2.42 ± 0.056
353.15 K | 1.426 ± 0.033 | 1.44 ± 0.034 | 1.5 ± 0.035 | 1.577 ± 0.036 | 1.654 ± 0.038 | 1.736 ± 0.04 | 1.9 ± 0.044 | 2.074 ± 0.048
363.15 K | 1.242 ± 0.029 | 1.253 ± 0.029 | 1.306 ± 0.03 | 1.371 ± 0.032 | 1.439 ± 0.033 | 1.508 ± 0.035 | 1.649 ± 0.038 | 1.798 ± 0.041
